Test results taken from PMC2836797 (FEBS letters, 2010).

What was measured:
Assay type in all cases: biochemical
[1] = biological target: ND5 subunit of NADH:ubiquinone oxidoreductase (complex I) (Bos taurus, UniProt P03920); conditions: read-out: -6M urea
[2] = biological target: ND2 subunit of NADH:ubiquinone oxidoreductase (complex I) (Bos taurus, UniProt P03892)
[3] = biological target: ND1 subunit of NADH:ubiquinone oxidoreductase (complex I) (Bos taurus, UniProt P03887); test: photoaffinity labeling of SMP with [3H]BPA, BN-PAGE/dSDS-PAGE radioactivity

Measured: IC50

Sequence of ND1 subunit of NADH:ubiquinone oxidoreductase (complex I) (P03887 whole entry, one chain of several): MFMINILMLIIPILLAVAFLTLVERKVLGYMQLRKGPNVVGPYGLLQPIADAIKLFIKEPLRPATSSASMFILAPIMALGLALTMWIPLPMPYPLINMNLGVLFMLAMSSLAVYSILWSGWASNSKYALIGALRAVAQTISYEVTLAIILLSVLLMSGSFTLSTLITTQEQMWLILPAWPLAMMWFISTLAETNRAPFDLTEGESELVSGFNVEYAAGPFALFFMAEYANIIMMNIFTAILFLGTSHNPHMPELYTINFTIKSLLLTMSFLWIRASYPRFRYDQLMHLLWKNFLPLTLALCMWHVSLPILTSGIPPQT
Sequence of ND2 subunit of NADH:ubiquinone oxidoreductase (complex I) (P03892 whole entry, one chain of several): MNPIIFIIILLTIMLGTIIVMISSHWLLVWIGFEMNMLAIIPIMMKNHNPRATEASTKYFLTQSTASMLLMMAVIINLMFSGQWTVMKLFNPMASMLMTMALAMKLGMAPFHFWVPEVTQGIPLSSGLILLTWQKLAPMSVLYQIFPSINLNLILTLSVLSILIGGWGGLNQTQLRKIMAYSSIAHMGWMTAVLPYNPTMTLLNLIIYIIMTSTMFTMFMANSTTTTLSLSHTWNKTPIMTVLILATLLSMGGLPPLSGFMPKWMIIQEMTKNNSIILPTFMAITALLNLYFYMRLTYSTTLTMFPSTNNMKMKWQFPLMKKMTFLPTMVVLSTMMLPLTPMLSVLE
Sequence of ND5 subunit of NADH:ubiquinone oxidoreductase (complex I) (P03920 whole entry, one chain of several): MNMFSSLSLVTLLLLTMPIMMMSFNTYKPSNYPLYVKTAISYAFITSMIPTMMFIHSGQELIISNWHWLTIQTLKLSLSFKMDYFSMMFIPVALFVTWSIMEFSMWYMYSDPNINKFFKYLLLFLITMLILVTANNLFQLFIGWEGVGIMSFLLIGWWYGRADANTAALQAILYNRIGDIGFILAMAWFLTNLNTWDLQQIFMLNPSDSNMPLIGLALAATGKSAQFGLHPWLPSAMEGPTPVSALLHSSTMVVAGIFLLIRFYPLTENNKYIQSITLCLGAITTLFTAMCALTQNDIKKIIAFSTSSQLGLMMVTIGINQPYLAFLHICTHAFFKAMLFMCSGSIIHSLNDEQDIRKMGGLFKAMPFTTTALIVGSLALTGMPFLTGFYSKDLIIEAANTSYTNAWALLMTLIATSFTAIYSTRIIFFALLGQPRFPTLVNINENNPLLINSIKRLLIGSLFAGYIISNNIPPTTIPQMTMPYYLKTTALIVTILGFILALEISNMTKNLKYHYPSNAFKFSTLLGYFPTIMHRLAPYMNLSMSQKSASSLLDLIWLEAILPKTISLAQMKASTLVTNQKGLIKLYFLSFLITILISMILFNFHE

benzophenone-asimicin [BPA]
~1 nM: all assays above
